Data: patent publication US20050101595A1, “N-containing cycloalkyl-substituted amino-thiazole derivatives and pharmaceutical compositions for inhibiting cell proliferation and methods for their use” (PFIZER INC., priority 2003, published 2005)
Where a name gives a salt, the structure may show the parent alone. Read-outs that look alike come from different tables or passages of the source.

How the values were obtained:
[1] = target: human CDK4 and genetically truncated (1-264) cyclin D3 (Homo sapiens, UniProt P11802); assay: Inhibition of CDK4/Cyclin D Retinoblastoma Kinase Activity; assay type: biochemical; conditions: for Ki: apparent Ki, CDK4/truncated cyclin D3, Rb fragment substrate, 25 μM ATP
In short: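 Read-out: 32P/33P incorporation into Rb fragment (386-928) captured on nitrocellulose, phosphorimager. Enzyme 5 nM CDK4/cyclin D3(1-264) from insect cells; ATP 25 μM, pH 7.4, 30 °C, 20 min (60 min for tight binders). Ki from competitive fits.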

[2] = target: CDK2/Cyclin A (Homo sapiens, UniProt P24941); assay: Inhibition of CDK2/Cyclin A Retinoblastoma Kinase Activity; assay type: biochemical; conditions: for Ki: apparent Ki, CDK2/proteolyzed cyclin A, Rb fragment substrate, 25 μM ATP; for CDK2 % Inhibition At 0.03 μM: Table 2
In short: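 Human CDK2, baculovirus/insect-cell expressed, complexed with proteolyzed cyclin A (10 nM or 19 nM CDK2) phosphorylates an Rb fragment with 25 μM [32P/33P]ATP at pH 7.4, 30° C, for 60 or 75 minutes under initial-rate conditions. Filter-captured radioactivity is read by phosphorimager; apparent Ki from competitive-inhibition fits.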

[3] = tested on: HCT-116 cell line; assay: Inhibition of cell growth, tetrazolium salt (MTT) assay; assay type: cell-based; conditions: for IC50: Homo sapiens, HCT-116, 120 h, MTT, three to five days, read-out: HCT-116 IC50; for HCT-116 % Inhibition at 0.25 μM: 0.25 μM compound
In short: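 Growth inhibition by MTT reduction at 540 nm (0.2 mg/mL, 4 h at 37° C, formazan dissolved in DMSO), normalized to cells given only 0.5% v/v DMSO. HCT-116 cultures in McCoy's 5A were dosed 4 h post-plating and kept three to five days at 37° C, 5% CO2.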

[4] = 0.1 μM compound, HCT-116, Table 4
[5] = 0.1 μM compound, HCT-116, Table 3

Chain of human CDK4 and genetically truncated (1-264) cyclin D3 (P11802 whole entry, the tested form may be a part): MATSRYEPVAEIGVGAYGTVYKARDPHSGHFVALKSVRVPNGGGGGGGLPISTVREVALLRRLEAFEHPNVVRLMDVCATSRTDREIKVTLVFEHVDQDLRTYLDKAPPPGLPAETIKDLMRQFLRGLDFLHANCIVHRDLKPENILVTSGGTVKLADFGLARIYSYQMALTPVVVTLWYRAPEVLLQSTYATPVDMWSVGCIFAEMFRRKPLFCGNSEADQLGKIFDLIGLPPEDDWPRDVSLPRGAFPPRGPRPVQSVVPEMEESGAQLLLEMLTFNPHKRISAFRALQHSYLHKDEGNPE
Chain of human CDK4 and genetically truncated (1-264) cyclin D3 (P30281 1-264 partner): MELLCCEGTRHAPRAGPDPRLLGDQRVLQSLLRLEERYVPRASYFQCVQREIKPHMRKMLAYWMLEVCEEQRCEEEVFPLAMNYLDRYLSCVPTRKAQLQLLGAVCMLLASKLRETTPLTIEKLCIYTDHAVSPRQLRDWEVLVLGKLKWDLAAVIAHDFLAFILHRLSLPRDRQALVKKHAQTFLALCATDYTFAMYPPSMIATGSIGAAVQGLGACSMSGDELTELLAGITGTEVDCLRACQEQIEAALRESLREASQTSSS

`COc1ccc(S(=O)(=O)N2CCC(Nc3nc(N)c(C(=O)c4c(F)cccc4F)s3)CC2)cc1` [Example F7, 1-{4-Amino-2-[1-(4-methoxy-benzenesulfonyl)-piperidin-4-ylamino]-thiazol-5-yl}-1-(2,6-difluoro-phenyl)-methanone] showed a Ki [1] of 2.5 nM, a Ki [2] of 0.8 nM and an IC50 ([3]; first HCT-116 column (c4)) of 190 nM. The IC50 ([3]; second HCT-116 column (c5)) was 460 nM.
`COC(=O)CCC(=O)N1CCC(Nc2nc(N)c(C(=O)c3c(F)cccc3F)s2)CC1` [Example Q49] was tested, and the “CDK4 % Inhibition at 0.03 μM” value ([1]; 0.03 μM compound, Table 4) was 24%, the “CDK2 % Inhibition at 0.03 μM” value ([2]; 0.03 μM compound, Table 4) was 16% and the “HCT-116 % Inhibition at 0.1 μM” value [3, 4] was 0%. For the same compound, the “HCT-116 % Inhibition at 0.25 μM” value ([3]; HCT-116, Table 4) was 28%.
For `CS(=O)(=O)c1ccccc1S(=O)(=O)N1CCC(Nc2nc(N)c(C(=O)c3c(F)cccc3F)s2)CC1` [Example P81], the “CDK4 % Inhibition at 0.03 μM” value ([1]; 0.03 μM compound, Table 3) was 36%, the “CDK2 % Inhibition at 0.03 μM” value ([2]; 0.03 μM compound, Table 3) was −5% and the “HCT-116 % Inhibition at 0.1 μM” value [3, 5] was 12%. The “HCT-116 % Inhibition at 0.25 μM” value ([3]; HCT-116, Table 3) was 19%.
Work on `Nc1nc(NC2CCN(S(=O)(=O)c3ccc(N4CCC[C@H]4CO)nc3)CC2)sc1C(=O)c1c(F)cccc1F` [Example G14, 1-{4-Amino-2-{1-[6-(2S-hydroxymethyl-pyrrolidin-1-yl)-pyridine-3-sulfonyl]-piperidin-4-ylamino}-thiazol-5-yl)-1-(2,6-difluoro-phenyl)-methanone Trifluoroacetic Acid Salt] yielded a Ki [1] of 0.8 nM, a Ki [2] of 0.5 nM and an IC50 ([3]; first HCT-116 column (c4)) of 140 nM. For the same compound, the IC50 ([3]; second HCT-116 column (c5)) was 3500 nM.
With `CCNC(=O)N1CCC(Nc2nc(N)c(C(=O)c3c(F)cccc3F)s2)CC1` [Example O31] the “CDK4 % Inhibition at 0.03 μM” value ([1]; 0.03 μM compound, Table 2) was 6%, the “CDK2 % Inhibition At 0.03 μM” value ([2]; 0.03 μM compound) was 33% and the “HCT-116 % Inhibition at 0.25 μM” value ([3]; HCT-116, Table 2) was 37%.
`CN1CCC[C@@H](Oc2ccc(S(=O)(=O)N3CCC(Nc4nc(N)c(C(=O)c5c(F)cccc5F)s4)CC3)cn2)C1` [Example H26, (4-Amino-2-{1-[6-(1-methyl-piperidin-3R-yloxy)-pyridine-3-sulfonyl]-piperidin-4-ylamino}-thiazol-5-yl)-(2,6-difluoro-phenyl)-methanone Hydrochloride] was tested, and the Ki [1] was 1.3 nM, the Ki [2] was 0.37 nM and the IC50 ([3]; first HCT-116 column (c4)) was 22 nM. For the same compound, the IC50 ([3]; second HCT-116 column (c5)) was 80 nM.
With `Nc1nc(NC2CCN(C(=O)c3c(F)cccc3Cl)CC2)sc1C(=O)c1c(F)cccc1F` [Example R109] the “CDK4 % Inhibition at 0.03 μM” value ([1]; at 0.03 μM) was 34%, the “CDK2 % Inhibition at 0.03 μM” value ([2]; at 0.03 μM) was 21% and the “HCT-116 % Inhibition at 0.1 μM” value ([3]; HCT-116 cells, at 0.1 μM) was 14%. The “HCT-116 5 Inhibition at 0.25 μM” value ([3]; HCT-116 cells) was 47.
In the case of `CC1CC(NCCS(=O)(=O)N2CCC(Nc3nc(N)c(C(=O)c4c(F)cccc4F)s3)CC2)CC(C)(C)C1` (stereo not drawn) [Example K44], the Ki [1] is reported as 2.5 nM, the Ki [2] is reported as 0.49 nM and the IC50 ([3]; first HCT-116 column (c4)) is reported as 100 nM. The IC50 ([3]; second HCT-116 column (c5)) was 360 nM.
`Nc1nc(NC2CCN(C(=O)Nc3ccccc3Br)CC2)sc1C(=O)c1c(F)cccc1F` [Example O4] was tested, and the “CDK4 % Inhibition at 0.03 μM” value ([1]; 0.03 μM compound, Table 2) was 10%, the “CDK2 % Inhibition At 0.03 μM” value ([2]; 0.03 μM compound) was 27% and the “HCT-116 % Inhibition at 0.25 μM” value ([3]; HCT-116, Table 2) was 4%.
With `Nc1nc(NC2CCN(S(=O)(=O)c3cccc(Br)c3)CC2)sc1C(=O)c1c(F)cccc1F` [Example P46] the “CDK4 % Inhibition at 0.03 μM” value ([1]; 0.03 μM compound, Table 3) was 68%, the “CDK2 % Inhibition at 0.03 μM” value ([2]; 0.03 μM compound, Table 3) was 59% and the “HCT-116 % Inhibition at 0.1 μM” value [3, 5] was 10%. The “HCT-116 % Inhibition at 0.25 μM” value ([3]; HCT-116, Table 3) was 20%.
`COc1ccc(OC)c(NC(=O)N2CCC(Nc3nc(N)c(C(=O)c4c(F)cccc4F)s3)CC2)c1` [Example O9] was tested, and the “CDK4 % Inhibition at 0.03 μM” value ([1]; 0.03 μM compound, Table 2) was 2%, the “CDK2 % Inhibition At 0.03 μM” value ([2]; 0.03 μM compound) was 35% and the “HCT-116 % Inhibition at 0.25 μM” value ([3]; HCT-116, Table 2) was 13%.
`Cc1ccc(Oc2ncccc2C(=O)N2CCC(Nc3nc(N)c(C(=O)c4c(F)cccc4F)s3)CC2)cc1` [Example R45] was tested, and the “CDK4 % Inhibition at 0.03 μM” value ([1]; at 0.03 μM) was 49%, the “CDK2 % Inhibition at 0.03 μM” value ([2]; at 0.03 μM) was 37% and the “HCT-116 % Inhibition at 0.1 μM” value ([3]; HCT-116 cells, at 0.1 μM) was 2%. The “HCT-116 5 Inhibition at 0.25 μM” value ([3]; HCT-116 cells) was 36.
For `Cc1cncn1-c1ccc(S(=O)(=O)N2CCC(Nc3nc(N)c(C(=O)c4c(F)cccc4F)s3)CC2)cn1` [Example G28, 1-(4-Amino-2-{1-[6-(5-methyl-imidazol-1-yl)-pyridine-3-sulfonyl]-piperidin-4-ylamino}-thiazol-5-yl)-1-(2,6-difluoro-phenyl)-methanone Hydrochloride], the Ki [1] was 0.85 nM, the Ki [2] was 0.4 nM and the IC50 ([3]; first HCT-116 column (c4)) was 160 nM. For the same compound, the IC50 ([3]; second HCT-116 column (c5)) was 330 nM.
`CSc1nccc(-c2ccc(S(=O)(=O)N3CCC(Nc4nc(N)c(C(=O)c5c(F)cccc5F)s4)CC3)s2)n1` [Example P72] was tested, and the “CDK4 % Inhibition at 0.03 μM” value ([1]; 0.03 μM compound, Table 3) was 61%, the “CDK2 % Inhibition at 0.03 μM” value ([2]; 0.03 μM compound, Table 3) was 61% and the “HCT-116 % Inhibition at 0.1 μM” value [3, 5] was 13%. The “HCT-116 % Inhibition at 0.25 μM” value ([3]; HCT-116, Table 3) was 35%.
For `CCCCCc1ccc(C(=O)N2CCC(Nc3nc(N)c(C(=O)c4c(F)cccc4F)s3)CC2)cc1` [Example Q37], the “CDK4 % Inhibition at 0.03 μM” value ([1]; 0.03 μM compound, Table 4) was 45%, the “CDK2 % Inhibition at 0.03 μM” value ([2]; 0.03 μM compound, Table 4) was 12% and the “HCT-116 % Inhibition at 0.1 μM” value [3, 4] was 0%. The “HCT-116 % Inhibition at 0.25 μM” value ([3]; HCT-116, Table 4) was 31%.
